“Also recorded” adds a separate entry of the source.
What was measured:
[1] = Water sorption isotherms (DVS); format: physicochemical; conditions: sorption isotherms at 25° C.
Description: To study the hygroscopical behaviour of this material, sorption isotherms are registered, e.g. on a DVS-1 water sorption monitor from Surface Measurement Systems. Adsorption and desorption isotherms are performed at 25° C. with 10% r.h. step intervals ranging from 10% r.h. up to 90% r.h.

[2] = Solid state chemical stability; format: physicochemical
Description: The crystalline free base form of 3-{3-[1-(4-Dimethylaminomethyl-phenylamino)-1-phenyl-meth-(Z)-ylidene]-2-oxo-2,3-dihydro-1H-indol-6-yl}-propynoic acid ethylamide according to this invention has further added properties, such as e.g. no sensitivity towards heat, humidity and photolysis in solid state (solid state chemical stability, e.g. 3d @ 70° C. and >90% r.h.: <1% decomposition; 3d @ 105° C.: <1.5% decomposition; 24 h under UV-radiation @ 250 W/m^2: <1.5% decomposition).

[3] = tested on: phospho-ERK in SK-MEL-28 cells; assay: Fast Active Cell-Based ELISA (FACE) SK-MEL-28 p-ERK; conditions: Homo sapiens, SK-MEL 28 melanoma cells, read-out: EC50 for reduction of phospho-ERK
Excerpt: Fast Active Cell-Based ELISA (FACE) SK-MEL-28 p-ERK:
The supernatant is removed.

H460 cells = assay: Polyploidy by DNA content analyses (Cellomics ArrayScan); format: cell-based, human; conditions: 7 nM, 42 h exposure
[4] = tested on: tumors derived from melanoma cell line G361^V600V/E; assay: Human melanoma xenograft G361 in nude mice; format: in vivo; conditions: oral qd, Compound A 10 mg/kg, vemurafenib 120 mg/kg; for TGI@d23 [%]: day 23; for CR@d30 [x/7] / PR@d30 [x/7]: day 30
Description: Athymic female BomTac:NMRI-Foxn1^nu mice about six weeks of age are allowed to adjust to ambient conditions for at least five days before they are used for experiments. The animals are housed under standardized conditions in groups of 7-10 in Macrolon® type III cages. Standardized diet (PROVIMI KLIBA) and autoclaved tap water are provided ad libitum. To establish subcutaneous tumors, cells are harvested by trypsinization, centrifuged, washed and resuspended in ice-cold PBS+5% FCS. 100 μL of cell suspension containing, depending on cell type, about 10^6 to 10^7 cells are injected subcutaneously into the right flank of a nude mouse (one site per mouse). Mice are randomly distributed between the treatment and the vehicle control group (12 days after cell injection) when tumors are well established and have reached volumes of 40-120 mm^3
The tumor diameter is measured three times a week (Monday, Wednesday and Friday) with a caliper. The volume of each tumor (in mm^3) is calculated according to the formula “tumor volume=length×diameter^2×π/6”. To monitor side effects of treatment, mice are inspected daily for abnormalities and body weight is determined three times a week (e.g. Monday, Wednesday and Friday). Animals are sacrificed at the end of the study about ten weeks after start of treatment. Animals with necrotic tumors or tumor sizes exceeding 1500 mm^3 are sacrificed early during the studies for ethical reasons.
For a quick overview of possible treatment effects the median of the tumor volume of each treatment group T is related to the median of the tumor volume of control C. Tumor growth inhibition (TGI) from day 1 until day d is calculated as: […]
wherein • C1 and T1 represent the median tumor volumes in the control and treatment groups at start of the experiment at day 1 and • Cd and Td represent the median tumor volumes in the control and treatment groups at end of the experiment at day d.
Mice with tumors derived from melanoma cell line G361^V600V/E are treated orally with the B-Raf inhibitor vemurafenib qd at doses of 120 mg/kg or with 3-{3-[1-(4-Dimethylaminomethyl-phenylamino)-1-phenyl-meth-(Z)-ylidene]-2-oxo-2,3-dihydro-1H-indol-6-yl}-propynoic acid ethylamide (Compound A) qd at doses of 10 mg/kg or with the vehicle only. In addition, mice are treated orally with B-Raf inhibitor vemurafenib qd at doses of 120 mg/kg in combination with Compound A qd at doses of 10 mg/kg.

[5] = tested on: phospho-histone H3 in NCI-H460 cells; assay: Analysis of histone H3 phosphorylation in NCI-H460 cells (Cellomics); format: cell-based; conditions: Homo sapiens, synchronized H460 NSCLC cells, 1 h treatment, molecular phosphorylation assay, read-out: EC50 for reduction of phospho-histone H3
Excerpt: This CDK1 inhibitor arrests cells in G2. […] The final DMSO concentration was 0.1%.

Solution state stability = format: physicochemical
Description: In solution state, the compound of formula (I) according to the invention show no or only minor sensitivity towards hydrolysis at pH 2.2-10 (solution state stability, e.g. 0.1M HCl, 8 h @ 37° C.: <1% decomposition; Mc Ilvaine buffer 7.4, 3d @ 60° C.: <1,5% decomposition).

SMILES | hygroscopical behaviour [1] | decomposition, solid state ([2]; 24 h under UV-radiation @ 250 W/m^2) [%] | decomposition, solid state ([2]; 3d @ 70° C. and >90% r.h.) [%] | decomposition, solid state ([2]; 3d @ 105° C.) [%] | EC50 [3] [nM] | polyploid cells (H460 cells) [%] | mortality [x/7] [4] [x/7] | TGI@d23 [%] [4] [%] | CR@d30 [x/7] [4] [x/7] | PR@d30 [x/7] [4] [x/7] | EC50 [5] [nM] | decomposition, solution state (Solution state stability; 0.1M HCl, 8 h @ 37° C.) [%] | decomposition, solution state (Solution state stability; Mc Ilvaine buffer 7.4, 3d @ 60° C.)
CCNC(=O)C#Cc1ccc2c(c1)NC(=O)/C2=C(\Nc1ccc(CN(C)C)cc1)c1ccccc1 [3-{3-[1-(4-Dimethylaminomethyl-phenylamino)-1-phenyl-meth-(Z)-ylidene]-2-oxo-2,3-dihydro-1H-indol-6-yl}-propynoic acid ethylamide] | not hygroscopic; also recorded: non-hygroscopic | < 1.5 | < 1 | < 1.5 |  |  |  |  |  |  |  |  | 
CCNC(=O)C#Cc1ccc2c(c1)NC(=O)/C2=C(\Nc1ccc(CN(C)C)cc1)c1ccccc1 [Compound A, 3-{3-[1-(4-Dimethylaminomethyl-phenylamino)-1-phenyl-meth-(Z)-ylidene]-2-oxo-2,3-dihydro-1H-indol-6-yl}-propynoic acid ethylamide] |  |  |  |  | 59 | 81 | 1 | 45 | 0 | 0 | 44 | < 1 | < 1,5%
CCCS(=O)(=O)Nc1ccc(F)c(C(=O)c2c[nH]c3ncc(-c4ccc(Cl)cc4)cc23)c1F [vemurafenib, reference compound] |  |  |  |  |  |  | 0 | 44 | 0 | 0 |  |  | 

Source: patent publication US20140018372A1, “CRYSTALLINE FORM OF A INDOLINONE DERIVATIVE AND ITS USE” (BOEHRINGER INGELHEIM INTERNATIONAL GMBH, priority 2012, published 2014)
